Measured values published in US12576040B2, “Ionizable lipids and methods of manufacture and use thereof” (priority 2020, dated 2026).

These molecules were tested on HEK 293 cells (assay: Firefly Luciferase Assay for mRNA Delivery Efficiency / transfection in vitro). Settings: Table 12; HEK 293 cells in vitro.
Format: cell-based
Set-up: key: +: successfully transfected HEK 293 cells in vitro; −: not active
Text: FIG. 32 illustrates luciferase reported expression in vitro and in vivo.
In certain embodiments, the invention encompasses a new class of ionizable lipids (the Ionizable Lipids of the Invention) synthesized bearing two ionizable amines and two degradable ester linkers to linoleic acid tails or branched tails. DL=DiLinoleic Acid, ADDE=Azane Diyl DiEthyl, Cx/Cy=carbon spacers, DMA=DiMethylAmine, Pyr=Pyridine, PipZ=PiperaZine, PipD=PiperiDine, DIPA=DiIsopropylamine, DM=DiMethyl, BOD=BisOctylDecyl.
Summary: LNPs were formulated using total lipid concentration of 50 mM comprised of ionizable lipids/DSPC/Cholesterol/PEG-DMG (50:10:38.5:1.5 mol %). Each one of the lipids were solubilized in ethanol until a clear solution was observed. The four lipids were combined to get 50 mM total lipid concentration (25/5/19.25/0.75 mM respectively) and serial dilutions to get 27.74 mM. […] Purified mRNA was ethanol precipitated, washed and resuspended in nuclease-free water to reach a concentration of 1 mg/ml. […] 16 μl Lipid Mix and 32 μl mRNA solution were mixed on Setting 3 and ejected into 48 μl 1×DPBS pH 7.4. The formed LNPS were then diluted into an additional 96 μl 1×DPBS pH 7.4. LNPs were then dialyzed against 1×DPBS pH 7.4 for 6×1 hr. LNPs were then diluted so that 32 ul contained 200 ng and 12K HEK293 cells were transfected with the same […]. • A: Firefly Luciferase Assay for mRNA Delivery Efficiency. After 24 hours of transfection, transfected cells were conditioned to room temperature for 30 minutes prior to the Firefly Luciferase Assay. Quantilum Recombinant Luciferase standard curve was prepared in 10% EMEM in 5-fold serial dilutions. 50 ul of each standard point from the range of 3.9×10^−5 mg/ml to 4.88×10^−3 mg/ml were included in the microplate as a positive enzyme activity control (data not shown) to maintain a linearity of 10^7 RLU/mg/ml. The ONE-Glo substrate, previously conditioned to room temperature for at least 4 hours, was added to each untransfected, transfected and Quantilum wells in a ratio 1:1. Assay plates were incubated for 3 minutes in darkness and immediately introduced into the Cytation 5 Cell Imaging Multi-Mode Reader (Biotek) to read luminescence. The results are illustrated in FIG. 7. • B: Ribogreen Assay for mRNA Encapsulation Efficiency. 1×TE Buffer and Triton Buffer (2% v/v in 1×TE Buffer) were added in duplicates into a black microplate per LNP. LNPs were diluted to 4 ng/ul in 1×DPBS pH 7.4 and added to each TE/Triton well in a ratio 1:1. Two standard curves were included in the Ribogreen Assay, one containing mRNA and 1×TE Buffer and other containing mRNA and Triton Buffer. Each one of these standard curves were used to calculate the mRNA concentration in each TE Buffer or Triton Buffer. This approach using two standard curves is more accurate for calculating the encapsulation efficiency and mRNA concentrations, in comparison to a single standard curve. Standards were included in the microplate after diluted LNPs were added to the plate. Microplates were incubated at 37° C. for 10 minutes to extract LNPs with Triton. Ribogreen reagent was diluted 1:100 in 1×TE Buffer and added to each well in a ratio 1:1. Microplates were immediately introduced into the Cytation 5 Cell Imaging Multi-Mode Reader (Biotek) to read Fluorescence (Ex485/Em528). The results are illustrated in FIG. 8. • C: Dynamic Light Scattering for LNP Size (red dots are PDI right y axis). LNPs were diluted to 6.25 ng/ul in 1×DPBS pH 7.4 and transferred into a quartz cuvette (ZEN2112) to measure size by Dynamic Light Scattering (DLS) in the Zetasizer Nano ZS (Malvern Panalytical) using particle RI of 1.45 and Absorption of 0.001 in 1×PBS at 25° C. with viscosity of 1.02 cP and RI of 1.335.

Structure (SMILES) | Transfection +/−
CCCCC/C=C\C/C=C\CCCCCCCCOC(=O)CCN(CCC(=O)OCCCCCCCC/C=C\C/C=C\CCCCC)CCN1CCN(C)CC1 (racemic) [DL-ADDE-C2/C2-4Me-PipZ] | +
CCCCC/C=C\C/C=C\CCCCCCCCOC(=O)CCN(CCNC(=O)OC(C)(C)C)CCC(=O)OCCCCCCCC/C=C\C/C=C\CCCCC (racemic) [DL-ADDE-C2/C2-BocA] | −
CCCCC/C=C\C/C=C\CCCCCCCCOC(=O)CCN(CCC(=O)OCCCCCCCC/C=C\C/C=C\CCCCC)CCN(C(C)C)C(C)C (racemic) [DL-ADDE-C2/C2-DIPA] | −
CCCCC/C=C\C/C=C\CCCCCCCCOC(=O)CCN(CCC(=O)OCCCCCCCC/C=C\C/C=C\CCCCC)CCN(C)C (racemic) [DL-ADDE-C2/C2-DMA] | +
CCCCC/C=C\C/C=C\CCCCCCCCOC(=O)CCN(CCN)CCC(=O)OCCCCCCCC/C=C\C/C=C\CCCCC (racemic) [DL-ADDE-C2/C2-DeBocA] | −
CCCCC/C=C\C/C=C\CCCCCCCCOC(=O)CCN(CCC(=O)OCCCCCCCC/C=C\C/C=C\CCCCC)CCN1CCCCC1 (racemic) [DL-ADDE-C2/C2-PipD] | +
CCCCC/C=C\C/C=C\CCCCCCCCOC(=O)CCN(CCCN1CCN(C)CC1)CCC(=O)OCCCCCCCC/C=C\C/C=C\CCCCC (racemic) [DL-ADDE-C2/C3-4Me-PipZ] | +
CCCCC/C=C\C/C=C\CCCCCCCCOC(=O)CCN(CCC(=O)OCCCCCCCC/C=C\C/C=C\CCCCC)CC(C)(C)CN(C)C (racemic) [DL-ADDE-C2/C3-DM-DMA] | −
CCCCC/C=C\C/C=C\CCCCCCCCOC(=O)CCN(CCCN(C)C)CCC(=O)OCCCCCCCC/C=C\C/C=C\CCCCC (racemic) [DL-ADDE-C2/C3-DMA] | +
CCCCC/C=C\C/C=C\CCCCCCCCOC(=O)CCN(CCCN1CCCC1)CCC(=O)OCCCCCCCC/C=C\C/C=C\CCCCC (racemic) [DL-ADDE-C2/C3-Pyr] | +
CCCCC/C=C\C/C=C\CCCCCCCCOC(=O)CCN(CCCCN1CCN(C)CC1)CCC(=O)OCCCCCCCC/C=C\C/C=C\CCCCC (racemic) [DL-ADDE-C2/C4-4Me-PipZ] | +
CCCCC/C=C\C/C=C\CCCCCCCCOC(=O)CCN(CCCCN(C)C)CCC(=O)OCCCCCCCC/C=C\C/C=C\CCCCC (racemic) [DL-ADDE-C2/C4-DMA] | +
CCCCC/C=C\C/C=C\CCCCCCCCOC(=O)CCCCN(CCCCC(=O)OCCCCCCCC/C=C\C/C=C\CCCCC)CCCCN1CCN(C)CC1 (racemic) [DL-ADDE-C4/C4-4Me-PipZ] | +
CCCCC/C=C\C/C=C\CCCCCCCCOC(=O)CCCCN(CCCCC(=O)OCCCCCCCC/C=C\C/C=C\CCCCC)CCCCN(C)C (racemic) [DL-ADDE-C4/C4-DMA] | +
CCCCC/C=C\C/C=C\CCCCCCCCOC(=O)CCCCN(CCCCC(=O)OCCCCCCCC/C=C\C/C=C\CCCCC)CCCCN1CCCCC1 (racemic) [DL-ADDE-C4/C4-PipD] | +
CCCCCCCCCCC(CCCCCCCC)COC(=O)CCN(CCCCN1CCN(C)CC1)CCC(=O)OCC(CCCCCCCC)CCCCCCCCCC (centres unmarked) [BOD-ADDE-C2/C4-4-Me-PipZ] | +
CCCCCCCCCCC(CCCCCCCC)COC(=O)CCN(CCC(=O)OCC(CCCCCCCC)CCCCCCCCCC)CCN1CCN(C)CC1 (centres unmarked) [BODD-ADDE-C2/C2-4Me-PipZ] | +

Same assay, conditions: Table 13A

Structure (SMILES) | Transfection +/−
CCCCC/C=C\C/C=C\CCCCCCCCOC(=O)CCN(CCO)CCC(=O)OCCCCCCCC/C=C\C/C=C\CCCCC (racemic) [DL-ADDE-EA] | −
CCCCC/C=C\C/C=C\CCCCCCCCOC(=O)CCN(CCC(=O)OCCCCCCCC/C=C\C/C=C\CCCCC)CCC(C)C (racemic) [DL-ADDE-IP] | −
CCCCC/C=C\C/C=C\CCCCCCCCOC(=O)CCN(CCCO)CCC(=O)OCCCCCCCC/C=C\C/C=C\CCCCC (racemic) [DL-ADDE-PA] | −
